Data taken from patent US9428819B1, “Method for synthesizing noble metal nanoparticles using dead cancer cells” (KING SAUD UNIVERSITY, priority 2016, dated 2016).

Columns and labels:
Test in all cases: Antimicrobial activity, diffusion Agar technique
Type in all cases: cell-based
Settings in all cases: beyond the initial well diameter of 6 mm
[1] = test system: Escherichia coli (RCMB 010054)
Method: (§1) The noble metal nanoparticles prepared by the present methods can be formulated into a composition effective as an antifungal and as an antibacterial agent (Gram positive and gram negative). […] The fungal and bacterial inhibition trial was conducted using the diffusion Agar technique. The data are expressed in the form of (M±S.D.): mean±standard deviation; wherein M represents the diameter of the inhibition zone, measured in millimeters (mm) beyond the initial well diameter of 6 mm.

[2] = test system: Bacillis subtilis (RCMB 010068)
Method: as §1

[3] = test system: Streptococcus pneumoniae (RCMB 010011)
Method: as §1

[4] = test system: Aspergillus fumigatus (RCMB 02567)
Method: as §1

## Gentamicin
[1]
  diameter of the inhibition zone (mean ± S.D.): 20.3 ± 0.58 mm

## CC1(C)S[C@@H]2[C@H](NC(=O)[C@H](N)c3ccccc3)C(=O)N2[C@H]1C(=O)O [Ampicillin]
[2]
  diameter of the inhibition zone (mean ± S.D.): 31.3 ± 1.5 mm
[3]
  diameter of the inhibition zone (mean ± S.D.): 21.0 ± 1.0 mm

## C[C@@H]1[C@H](O)[C@@H](C)/C=C/C=C/C=C/C=C/C=C/C=C/C=C/[C@H](O[C@@H]2O[C@H](C)[C@@H](O)[C@H](N)[C@@H]2O)C[C@@H]2O[C@](O)(C[C@@H](O)C[C@@H](O)[C@H](O)CC[C@@H](O)C[C@@H](O)CC(=O)O[C@H]1C)C[C@H](O)[C@H]2C(=O)O [Amphotericin B]
[4]
  diameter of the inhibition zone (mean ± S.D.): 21.7 ± 1.5 mm
